From patent US8187821B2, “Compositions and methods for the modulation of PGRMC1” (University of Utah Research Foundation, priority 2008, dated 2012)

What was measured:
dap1Δ S. cerevisiae = test: Amphotericin B sensitivity of dap1Δ yeast; assay type: cell-based; details: 37° C; data not shown
Method: PGRMC1 and its homologues have been implicated to be involved in a number of distinct biological processes. […] Additionally, dap1Δ S. cerevisiae appears to be resistant to the polyene antibiotic amphotericin B at 37° C. (data not shown). Amphotericin B functions in a similar manner as nystatin in binding to and depleting membrane ergosterol thereby killing the cell.

His10-PGRMC1 = target: T1, His10-PGRMC1 (Homo sapiens, UniProt O00264); test: Competition of cold competitors with [^3H] progesterone or [^3H] cholesterol for His10-PGRMC1 binding; details: for effect of cold competitor on binding of [^3H] cholesterol: competitor at ten-fold higher concentration; for effect of cold competitor on specific [^3H] progesterone binding: competitor in ten-fold excess
T1 construct: a product containing the full length coding region of PGMRC1 flanked by Nde1 and BamHI restriction sites; made in house; host or cells: E. coli BL21 (DE3) / BL21 codon plus (RIPL); purified bacterial membranes
T1 sequence (O00264 whole entry): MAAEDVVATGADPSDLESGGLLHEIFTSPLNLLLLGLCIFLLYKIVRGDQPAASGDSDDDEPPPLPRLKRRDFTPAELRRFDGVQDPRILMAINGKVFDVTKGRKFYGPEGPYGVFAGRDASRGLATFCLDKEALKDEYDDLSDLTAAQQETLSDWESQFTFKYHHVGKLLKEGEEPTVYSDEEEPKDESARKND
Method: The standard 10 μL binding reaction contained 10 μp purified membranes (total protein) and 10 μM [^3H] progesterone or [^3H] cholesterol (3,000-5,000 cpm) in buffer A: 20% ethanol. Stock solutions (100 μM) of [^3H] cholesterol and [^3H] progesterone containing ˜4×10^4 cpm/μL, were prepared in 95% ethanol. Reactions were prepared in clear 2.0 mL microcentrifuge tubes on ice. To start the reaction, the microfuge tube was briefly mixed (vortex) and placed at 37° C. Following a 10 to 30 min incubation, the tubes were centrifuged in a microfuge (˜13,000 rpm) for 2 min. The supernatant was carefully removed and the pellet was washed with an additional 10 μL water. After a second round of centrifugation (2 min; 13,000 rpm), the resulting supernatant was combined with the first and the pellet was resuspended in 20 μL H2O, Scintillation fluid (700 μL Wallac Optiflour) was added to each fraction and the fractions were mixed extensively. The fractions were then counted in a multi-well scintillation counter (Wallac Microbeta Triluxmax, Waltham, Mass.) for 30 seconds each. Binding are reported as μ/moles of ligand bound per mg of membrane protein. His10-PGRMC1 (His10 disclosed as SEQ ID NO: 14)-specific binding is reported as the difference in binding between transformed and untransformed bacteria. Experimental deviations from the standard assay conditions are noted in individual figure legends.
To test whether progesterone and cholesterol compete for the same specific binding site, the direct binding of [^3H] progesterone or [^3H] cholesterol to His10-PGRMC1 (His10 disclosed as SEQ ID NO: 14) in the presence of various cold competitors was examined. In these experiments, the standard amount of [^3H] ligand was combined with a cold competitor at either 10 or 100-fold higher concentration and mixed well to ensure homogeneity. These stock ligand solutions were then used in the standard binding assay as described.
The ability of other putative ligands reported in the literature to compete with progesterone binding was examined. […] As a control, cold progesterone (P) was used as a competitor and it was observed that excess cold progesterone competes with [^3H] progesterone for His10-PGRMC1 (His10 disclosed as SEQ ID NO: 14) binding. Contrastingly, binding of [^3H] cholesterol to His10-PGRMC1 (His10 disclosed as SEQ ID NO: 14) was unaffected by the presence of progesterone, ergosterol, or heme at ten-fold higher concentrations (FIG. 9, cholesterol). It was not until competitor concentrations were 100-fold higher than ligand that a reduction of cholesterol binding was observed.

Row | SMILES | sensitivity of dap1Δ strain to the antibiotic (dap1Δ S. cerevisiae) | effect of cold competitor on binding of [^3H] cholesterol (His10-PGRMC1) | effect of cold competitor on specific [^3H] progesterone binding (His10-PGRMC1)
1 | C[C@@H]1[C@H](O)[C@@H](C)/C=C/C=C/C=C/C=C/C=C/C=C/C=C/[C@H](O[C@@H]2O[C@H](C)[C@@H](O)[C@H](N)[C@@H]2O)C[C@@H]2O[C@](O)(C[C@@H](O)C[C@@H](O)[C@H](O)CC[C@@H](O)C[C@@H](O)CC(=O)O[C@H]1C)C[C@H](O)[C@H]2C(=O)O [amphotericin B] | resistant |  | 
2 | CC(C)[C@@H](C)/C=C/[C@@H](C)[C@H]1CC[C@H]2C3=CC=C4C[C@@H](O)CC[C@]4(C)[C@H]3CC[C@]12C [ergosterol] |  | unaffected | reduced
3 | C=CC1=C(C)c2cc3[n-]c(cc4[n-]c(cc5nc(cc1n2)C(C)=C5C=C)c(C)c4CCC(=O)O)c(CCC(=O)O)c3C.[Fe+2] [heme] |  | unaffected | reduced
